Experiment: xn = mol fraction of the nth substance listed
Conditions: 101 kPa, Liquid; for mass density: Vibrating tube method; for speed of sound: Pulse-echo method

BrCBr [dibromomethane] + CCCCCCC
Conditions | mass density [kg/m3] | speed of sound [m/s]
288.15 K, x1 = 0.1019 | 779.65 | –
288.15 K, x1 = 0.1838 | 861.49 | –
288.15 K, x1 = 0.2536 | 937.65 | –
288.15 K, x1 = 0.3055 | 998.83 | –
288.15 K, x1 = 0.4064 | 1130.32 | –
288.15 K, x1 = 0.5029 | 1274.13 | –
288.15 K, x1 = 0.6023 | 1444.97 | –
288.15 K, x1 = 0.6525 | 1541.56 | –
288.15 K, x1 = 0.7016 | 1644.24 | –
288.15 K, x1 = 0.8003 | 1878.69 | –
288.15 K, x1 = 0.8961 | 2149.52 | –
288.15 K, x1 = 1 | 2509.06 | –
292.87 K, x1 = 1 | – | 960.63
292.88 K, x1 = 0.9019 | – | 946.13
292.89 K, x1 = 0.1062 | – | 1104
292.89 K, x1 = 0.2032 | – | 1066.3
292.89 K, x1 = 0.304 | – | 1032.1
292.9 K, x1 = 0.405 | – | 1002.4
292.9 K, x1 = 0.4998 | – | 979.49
292.91 K, x1 = 0.7043 | – | 946.92
292.91 K, x1 = 0.8031 | – | 941.84
292.92 K, x1 = 0.6048 | – | 959.47
293.14 K, x1 = 0.2536 | 932.03 | –
293.14 K, x1 = 0.4064 | 1123.66 | –
293.14 K, x1 = 0.6023 | 1436.76 | –
293.14 K, x1 = 0.7016 | 1635.05 | –
293.15 K, x1 = 0.1019 | 774.91 | –
293.15 K, x1 = 0.1838 | 856.29 | –
293.15 K, x1 = 0.3055 | 992.87 | –
293.15 K, x1 = 0.5029 | 1266.74 | –
293.15 K, x1 = 0.6525 | 1532.85 | –
293.15 K, x1 = 0.8003 | 1868.4 | –
293.15 K, x1 = 0.8961 | 2138.01 | –
293.15 K, x1 = 1 | 2496.03 | –
298.14 K, x1 = 0.1838 | 851.06 | –
298.14 K, x1 = 0.2536 | 926.36 | –
298.14 K, x1 = 0.3055 | 986.88 | –
298.14 K, x1 = 0.6023 | 1428.45 | –
298.14 K, x1 = 0.7016 | 1625.79 | –
298.14 K, x1 = 0.8961 | 2126.46 | –
298.15 K, x1 = 0.1019 | 770.15 | –
298.15 K, x1 = 0.2032 | – | 1045.8
298.15 K, x1 = 0.4064 | 1116.96 | –
298.15 K, x1 = 0.5029 | 1259.28 | –
298.15 K, x1 = 0.6525 | 1524.09 | –
298.15 K, x1 = 0.8003 | 1858.05 | –
298.15 K, x1 = 0.9019 | – | 931.96
298.15 K, x1 = 1 | 2482.97 | 947.15
298.16 K, x1 = 0.1062 | – | 1082.4
298.16 K, x1 = 0.304 | – | 1012.7
298.17 K, x1 = 0.4998 | – | 962
298.17 K, x1 = 0.8031 | – | 926.99
298.18 K, x1 = 0.405 | – | 984.03
298.18 K, x1 = 0.7043 | – | 931.29
298.19 K, x1 = 0.6048 | – | 942.98
303.11 K, x1 = 1 | – | 934.52
303.13 K, x1 = 0.1062 | – | 1062.1
303.13 K, x1 = 0.2032 | – | 1026.6
303.13 K, x1 = 0.304 | – | 994.46
303.13 K, x1 = 0.9019 | – | 918.63
303.14 K, x1 = 0.6023 | 1420.11 | –
303.14 K, x1 = 0.8031 | – | 913
303.15 K, x1 = 0.1019 | 765.35 | –
303.15 K, x1 = 0.1838 | 845.79 | –
303.15 K, x1 = 0.2536 | 920.67 | –
303.15 K, x1 = 0.3055 | 980.85 | –
303.15 K, x1 = 0.405 | – | 966.75
303.15 K, x1 = 0.4064 | 1110.22 | –
303.15 K, x1 = 0.4998 | – | 945.56
303.15 K, x1 = 0.5029 | 1251.79 | –
303.15 K, x1 = 0.6525 | 1515.27 | –
303.15 K, x1 = 0.7016 | 1616.48 | –
303.15 K, x1 = 0.7043 | – | 916.56
303.15 K, x1 = 0.8003 | 1847.66 | –
303.15 K, x1 = 0.8961 | 2114.87 | –
303.15 K, x1 = 1 | 2469.88 | –
303.17 K, x1 = 0.6048 | – | 927.45
308.1 K, x1 = 0.2032 | – | 1007.5
308.1 K, x1 = 1 | – | 921.89
308.11 K, x1 = 0.9019 | – | 905.33
308.12 K, x1 = 0.1062 | – | 1041.9
308.12 K, x1 = 0.304 | – | 976.3
308.12 K, x1 = 0.4998 | – | 929.18
308.13 K, x1 = 0.405 | – | 949.39
308.13 K, x1 = 0.8031 | – | 899.01
308.14 K, x1 = 0.6048 | – | 911.94
308.14 K, x1 = 0.7043 | – | 901.84
308.15 K, x1 = 0.1019 | 760.52 | –
308.15 K, x1 = 0.1838 | 840.49 | –
308.15 K, x1 = 0.2536 | 914.94 | –
308.15 K, x1 = 0.3055 | 974.78 | –
308.15 K, x1 = 0.4064 | 1103.44 | –
308.15 K, x1 = 0.5029 | 1244.25 | –
308.15 K, x1 = 0.6023 | 1411.72 | –
308.15 K, x1 = 0.6525 | 1506.41 | –
308.15 K, x1 = 0.7016 | 1607.12 | –
308.15 K, x1 = 0.8003 | 1837.22 | –
308.15 K, x1 = 0.8961 | 2103.24 | –
308.15 K, x1 = 1 | 2456.76 | –
313.14 K, x1 = 0.1019 | 755.67 | –
313.14 K, x1 = 0.5029 | 1236.67 | –
313.14 K, x1 = 0.6525 | 1497.49 | –
313.15 K, x1 = 0.1838 | 835.16 | –
313.15 K, x1 = 0.2536 | 909.16 | –
313.15 K, x1 = 0.3055 | 968.68 | –
313.15 K, x1 = 0.4064 | 1096.62 | –
313.15 K, x1 = 0.6023 | 1403.28 | –
313.15 K, x1 = 0.7016 | 1597.72 | –
313.15 K, x1 = 0.8003 | 1826.75 | –
313.15 K, x1 = 0.8961 | 2091.58 | –
313.15 K, x1 = 1 | 2443.59 | –
313.27 K, x1 = 1 | – | 908.83
313.28 K, x1 = 0.2032 | – | 987.55
313.28 K, x1 = 0.9019 | – | 891.54
313.29 K, x1 = 0.1062 | – | 1021
313.3 K, x1 = 0.304 | – | 957.58
313.31 K, x1 = 0.405 | – | 931.52
313.31 K, x1 = 0.4998 | – | 912.23
313.31 K, x1 = 0.7043 | – | 886.55
313.31 K, x1 = 0.8031 | – | 884.49
313.32 K, x1 = 0.6048 | – | 895.85
318.15 K, x1 = 0.1019 | 750.77 | –
318.15 K, x1 = 0.1838 | 829.78 | –
318.15 K, x1 = 0.2536 | 903.35 | –
318.15 K, x1 = 0.3055 | 962.53 | –
318.15 K, x1 = 0.4064 | 1089.75 | –
318.15 K, x1 = 0.5029 | 1229.04 | –
318.15 K, x1 = 0.6023 | 1394.79 | –
318.15 K, x1 = 0.6525 | 1488.53 | –
318.15 K, x1 = 0.7016 | 1588.27 | –
318.15 K, x1 = 0.8003 | 1816.27 | –
318.15 K, x1 = 0.8961 | 2079.95 | –
318.15 K, x1 = 1 | 2430.37 | –

From the NIST ThermoML archive (doi:10.1007/s10765-010-0773-1)
